Laboratory results from patent US10800774B2, “Heterocyclic inhibitors of ATR kinase” (Board of Regents, The University of Texas System, priority 2017, dated 2020).
pIC50: −log10 of the molar value.

Legend:
[1] = biological target: ATR/ATRIP complex (Homo sapiens (Human), UniProt Q13535); test: ATR/ATRIP enzymatic assay (Caliper-based); format: biochemical; conditions: FAM-labeled RAD17 peptide, ATP; read-out: ATR/ATRIP Enzyme IC50
Method: Human full-length FLAG-TEV-ATR and His6-ATRIP were co-expressed in HEK293 cells. […] The sample was loaded into a column, and then washed with buffer A three times. Protein was subsequently eluted with 2 ml of buffer B (buffer A+200 μg/ml 3×FLAG peptide).
The ability of new chemical matter to inhibit the ATR catalytic activity in this ATR/ATRIP complex was assessed using a Caliper-based assay. A 2× enzyme solution (i.e., 4 nM enzyme) was prepared using 1× Kinase Reaction Buffer (25 mM HEPES pH 8, 0.0055% Brij-35, 10 mM MnCl2, and 1 mM DTT). […] 10 μL of the 2× enzyme solution was transferred to an assay plate containing 60 nL of test compound (from a 3× serial dilution) in 100% DMSO. Following a 30 minute incubation at 28° C., 10 μL of the 2× peptide solution was then transferred to the same assay plate. The reaction was allowed to incubate at 28° C. for 6 hours. After adding […] of stop buffer (100 mM HEPES pH 7.5, 0.015% Brij-35, 0.2% Coating-3 Reagent (PerkinElmer, catalog # PN760050), and 50 mM EDTA), data were collected on a Caliper instrument. Conversion values were converted to inhibition values via the following equation: % inhibition=(max−conversion)/(max−min)*100, whereby “max” corresponds to the DMSO control and “min” corresponds to the low control. IC50 values were calculated using the following equation in XLFit: Y=Bottom+(Top−Bottom)/1+(IC50/X)^HillSlope).

[2] = tested on: ATR-driven phosphorylation of Chk1 kinase at Serine 345 in HT-29 cells; test: pCHK1 cellular assay (CHK1 p-Ser345 AlphaScreen SureFire); conditions: Homo sapiens, HT-29, read-out: pCHK1 Cell IC50
Method: The microplate was incubated overnight (approximately 20 hours) at 37° C. with 5% CO2 and ambient 02. Stock solutions of the test compounds were prepared in 100% DMSO (Sigma, Catalog # D2650) and serially diluted 1:3 using 100% DMSO. Compounds were additionally diluted 1:33 in culture medium, and 10 ul/well were transferred to the tissue culture plate. Following the compound addition the microplate was incubated at 37° C. for 90 minutes. […] The cells were then washed with PBS and lysed using 10 uL/well […] ® Kit lysis buffer diluted to 1× in water (PerkinElmer Catalog # TGRCHK1S50K), with mixing on an orbital shaker at 500 rpm for 20 min at RT. Lysates were frozen at −20° C. overnight.
The pCHK1 ALPHASCREEN® signal was measured using an ENVISION® plate reader (PerkinElmer). IC50 values were calculated using a four-parameter logistic curve fit using Genedata Screener software. Percent of control for each compound concentration was calculated by the following formula: 100*(Compound-Min)/(Max-Min) where “Max” is the high control, DMSO, and “Min” is the low control, 5 uM ATR inhibitor.

Chain of ATR/ATRIP complex (Q13535 whole entry): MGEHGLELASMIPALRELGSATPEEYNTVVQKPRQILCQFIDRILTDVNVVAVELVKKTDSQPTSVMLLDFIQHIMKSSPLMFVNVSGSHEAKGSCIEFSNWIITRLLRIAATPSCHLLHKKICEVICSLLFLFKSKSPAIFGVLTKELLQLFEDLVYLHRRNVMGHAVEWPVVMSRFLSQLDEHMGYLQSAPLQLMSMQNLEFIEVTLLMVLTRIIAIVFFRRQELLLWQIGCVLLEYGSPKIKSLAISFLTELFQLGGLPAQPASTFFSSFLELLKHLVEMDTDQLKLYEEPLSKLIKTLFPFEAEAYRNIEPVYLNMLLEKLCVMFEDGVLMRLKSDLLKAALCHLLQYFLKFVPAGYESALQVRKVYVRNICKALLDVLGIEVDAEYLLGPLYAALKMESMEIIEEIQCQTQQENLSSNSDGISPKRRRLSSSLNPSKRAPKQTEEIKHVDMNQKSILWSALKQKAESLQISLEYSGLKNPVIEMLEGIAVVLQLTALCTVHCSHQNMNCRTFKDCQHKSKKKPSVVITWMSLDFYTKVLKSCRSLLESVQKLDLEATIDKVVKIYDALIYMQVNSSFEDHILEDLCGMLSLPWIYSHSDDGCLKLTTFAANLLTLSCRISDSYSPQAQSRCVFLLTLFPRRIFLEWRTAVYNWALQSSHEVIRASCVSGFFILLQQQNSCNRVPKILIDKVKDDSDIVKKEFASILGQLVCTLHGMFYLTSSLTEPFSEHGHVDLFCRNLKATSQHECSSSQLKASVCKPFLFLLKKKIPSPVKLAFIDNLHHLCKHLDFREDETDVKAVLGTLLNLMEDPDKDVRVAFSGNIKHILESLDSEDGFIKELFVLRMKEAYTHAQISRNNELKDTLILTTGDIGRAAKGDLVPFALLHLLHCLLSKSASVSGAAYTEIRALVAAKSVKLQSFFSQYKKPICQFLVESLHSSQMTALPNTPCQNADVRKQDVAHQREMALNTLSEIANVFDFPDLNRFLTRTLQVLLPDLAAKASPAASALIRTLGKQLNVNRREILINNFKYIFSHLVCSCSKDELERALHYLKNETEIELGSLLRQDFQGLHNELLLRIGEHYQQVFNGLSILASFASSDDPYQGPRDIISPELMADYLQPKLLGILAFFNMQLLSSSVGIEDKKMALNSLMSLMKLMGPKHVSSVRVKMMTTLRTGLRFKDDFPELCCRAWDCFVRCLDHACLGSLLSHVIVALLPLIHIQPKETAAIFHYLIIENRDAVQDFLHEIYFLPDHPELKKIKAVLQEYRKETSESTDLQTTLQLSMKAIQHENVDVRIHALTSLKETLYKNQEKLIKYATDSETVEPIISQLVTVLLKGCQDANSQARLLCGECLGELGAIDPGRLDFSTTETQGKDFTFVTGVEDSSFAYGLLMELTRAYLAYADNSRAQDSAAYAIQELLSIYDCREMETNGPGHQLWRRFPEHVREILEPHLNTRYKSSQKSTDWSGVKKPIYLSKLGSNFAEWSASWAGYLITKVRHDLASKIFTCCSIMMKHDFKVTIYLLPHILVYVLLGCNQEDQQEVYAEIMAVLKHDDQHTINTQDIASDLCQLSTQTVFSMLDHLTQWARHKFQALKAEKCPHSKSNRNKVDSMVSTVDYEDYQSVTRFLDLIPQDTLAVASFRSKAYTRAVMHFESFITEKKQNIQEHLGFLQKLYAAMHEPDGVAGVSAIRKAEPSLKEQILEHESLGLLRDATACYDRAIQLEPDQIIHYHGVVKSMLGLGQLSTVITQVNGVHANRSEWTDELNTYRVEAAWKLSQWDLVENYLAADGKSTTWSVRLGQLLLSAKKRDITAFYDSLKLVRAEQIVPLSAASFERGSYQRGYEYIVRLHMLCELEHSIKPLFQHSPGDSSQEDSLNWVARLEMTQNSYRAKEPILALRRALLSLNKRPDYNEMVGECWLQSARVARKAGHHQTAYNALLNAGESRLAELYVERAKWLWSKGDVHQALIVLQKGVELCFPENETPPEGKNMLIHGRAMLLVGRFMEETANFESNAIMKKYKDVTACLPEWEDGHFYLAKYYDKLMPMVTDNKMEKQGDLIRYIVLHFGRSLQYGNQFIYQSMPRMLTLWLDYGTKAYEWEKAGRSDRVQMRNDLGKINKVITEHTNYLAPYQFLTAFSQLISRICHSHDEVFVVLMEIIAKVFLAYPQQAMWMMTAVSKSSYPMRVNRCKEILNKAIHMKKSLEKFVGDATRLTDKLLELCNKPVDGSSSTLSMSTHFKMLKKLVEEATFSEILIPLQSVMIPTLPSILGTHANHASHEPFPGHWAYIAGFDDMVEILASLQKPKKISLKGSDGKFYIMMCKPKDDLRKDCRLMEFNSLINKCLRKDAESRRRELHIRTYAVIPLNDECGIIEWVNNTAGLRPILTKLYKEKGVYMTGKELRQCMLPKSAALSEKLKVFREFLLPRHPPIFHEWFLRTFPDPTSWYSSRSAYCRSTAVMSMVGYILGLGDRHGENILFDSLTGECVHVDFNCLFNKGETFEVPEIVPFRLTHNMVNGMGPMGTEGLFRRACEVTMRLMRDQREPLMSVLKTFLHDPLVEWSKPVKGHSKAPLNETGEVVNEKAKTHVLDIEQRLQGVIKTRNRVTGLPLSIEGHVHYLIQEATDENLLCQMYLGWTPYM
Chain of ATR/ATRIP complex (Q8WXE1 whole entry partner): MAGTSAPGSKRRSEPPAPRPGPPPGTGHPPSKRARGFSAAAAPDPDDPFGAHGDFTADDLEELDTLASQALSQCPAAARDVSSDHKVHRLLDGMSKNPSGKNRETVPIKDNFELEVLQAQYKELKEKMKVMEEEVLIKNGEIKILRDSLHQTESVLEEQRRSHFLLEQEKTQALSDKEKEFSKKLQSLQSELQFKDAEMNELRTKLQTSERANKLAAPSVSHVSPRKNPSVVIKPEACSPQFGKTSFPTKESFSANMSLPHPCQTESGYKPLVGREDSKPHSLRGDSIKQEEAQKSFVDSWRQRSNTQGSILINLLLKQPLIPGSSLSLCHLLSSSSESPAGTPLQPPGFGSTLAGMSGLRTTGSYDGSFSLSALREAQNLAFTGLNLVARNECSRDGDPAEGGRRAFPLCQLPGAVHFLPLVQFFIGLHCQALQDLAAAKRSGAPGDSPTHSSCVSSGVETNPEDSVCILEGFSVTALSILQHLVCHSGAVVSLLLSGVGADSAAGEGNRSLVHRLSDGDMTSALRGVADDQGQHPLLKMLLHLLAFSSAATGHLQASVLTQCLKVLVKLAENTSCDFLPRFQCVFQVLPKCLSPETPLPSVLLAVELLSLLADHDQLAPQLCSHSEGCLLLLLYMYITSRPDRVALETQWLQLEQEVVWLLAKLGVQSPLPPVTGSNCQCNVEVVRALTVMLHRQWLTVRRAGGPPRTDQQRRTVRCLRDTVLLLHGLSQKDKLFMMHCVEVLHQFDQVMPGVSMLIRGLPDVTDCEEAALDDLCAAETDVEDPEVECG

pIC50 [1]	pIC50 [2]	SMILES
7.51	6.75	C[C@@H]1COCCN1c1cc(C2CCCS2(=O)=O)nc(-c2cc(Cl)nc3[nH]ccc23)n1 (single isomer, unassigned) [Example 5a]
7.14	6.36	C[C@@H]1COCCN1c1cc([C@H]2CCCS2(=O)=O)nc(-c2cc(Cl)nc3[nH]ccc23)n1 (single isomer, unassigned) [Example 5b]
8.15	7.02	CCN1CCCN(c2cc(N3CCOC[C@H]3C)nc(-c3ccnc4[nH]ccc34)n2)S1(=O)=O [Example 1, (R)-2-Ethyl-6-(6-(3-methylmorpholino)-2-(1H-pyrrolo[2,3-b]pyridin-4-yl)pyrimidin-4-yl)-1,2,6-thiadiazinane 1,1-dioxide]
7.32	6.30	C[C@@H]1COCCN1c1cc(C2CCN(C)C2=O)nc(-c2ccnc3[nH]ccc23)n1 (stereo partly drawn) [Example 3, 1-Methyl-3-(6-((R)-3-methylmorpholino)-2-(1H-pyrrolo[2,3-b]pyridin-4-yl)pyrimidin-4-yl)pyrrolidin-2-one]
7.28	6.30	C[C@@H]1COCCN1c1cc(N2CCCN(C)S2(=O)=O)nc(-c2cc(Cl)nc3[nH]ccc23)n1 [Example 6, (R)-2-(2-(6-Chloro-1H-pyrrolo[2,3-b]pyridin-4-yl)-6-(3-methylmorpholino)pyrimidin-4-yl)-6-methyl-1,2,6-thiadiazinane 1,1-dioxide]
8.15	6.52	CC(C)N1CCCN(c2cc(N3CCOC[C@H]3C)nc(-c3ccnc4[nH]ccc34)n2)S1(=O)=O [Example 8, 2-{6-[(3R)-3-Methylmorpholin-4-yl]-2-{1H-pyrrolo[2,3-b]pyridin-4-yl}pyrimidin-4-yl}-6-(propan-2-yl)-1λ^6,2,6-thiadiazinane-1,1-dione]
6.94	6.24	CCN1CCCN(c2cc(N3CCOC[C@H]3C)nc(-c3cc(Cl)nc4[nH]ccc34)n2)S1(=O)=O [Example 9, 2-(2-{6-Chloro-1H-pyrrolo[2,3-b]pyridin-4-yl}-6-[(3R)-3-methylmorpholin-4-yl]pyrimidin-4-yl)-6-ethyl-1λ^6,2,6-thiadiazinane-1,1-dione]
8.15	6.87	C[C@@H]1COCCN1c1cc(C2CCCN(S(C)(=O)=O)C2)nc(-c2ccnc3[nH]ccc23)n1 (stereo partly drawn) [Example 10, (3R)-4-[6-(1-Methane-sulfonylpiperidin-3-yl)-2-{1H-pyrrolo[2,3-b]pyridin-4-yl}pyrimidin-4-yl]-3-methylmorpholine]
8.10	7.01	C[C@@H]1COCCN1c1cc(C2CCN(S(C)(=O)=O)C2)nc(-c2ccnc3[nH]ccc23)n1 (stereo partly drawn) [Example 11, (3R)-4-[6-(1-Methane-sulfonylpyrrolidin-3-yl)-2-{1H-pyrrolo[2,3-b]pyridin-4-yl}pyrimidin-4-yl]-3-methylmorpholine]
7.62	6.89	CC(=O)N1CCC(c2cc(N3CCOC[C@H]3C)nc(-c3ccnc4[nH]ccc34)n2)CC1 [Example 12, 1-(4-{6-[(3R)-3-Methylmorpholin-4-yl]-2-{1H-pyrrolo[2,3-b]pyridin-4-yl}pyrimidin-4-yl}piperidin-1-yl) ethan-1-one]
8.00	6.73	COC(=O)N1CCC(c2cc(N3CCOC[C@H]3C)nc(-c3ccnc4[nH]ccc34)n2)CC1 [Example 13, Methyl 4-{6-[(3R)-3-methylmorpholin-4-yl]-2-{1H-pyrrolo[2,3-b]pyridin-4-yl}pyrimidin-4-yl}piperidine-1-carboxylate]
7.77	6.78	C[C@@H]1COCCN1c1cc(C2CCOCC2)nc(-c2ccnc3[nH]ccc23)n1 [Example 14, (3R)-3-Methyl-4-[6-(oxan-4-yl)-2-{1H-pyrrolo[2,3-b]-pyridin-4-yl}pyrimidin-4-yl]-morpholine]
8.00	6.68	CC(=O)N1CCCC(c2cc(N3CCOC[C@H]3C)nc(-c3ccnc4[nH]ccc34)n2)C1 (stereo partly drawn) [Example 15, 1-(3-{6-[(3R)-3-Methylmorpholin-4-yl]-2-{1H-pyrrolo[2,3-b]pyridin-4-yl}pyrimidin-4-yl}piperidin-1-yl) ethan-1-one]
7.72	6.62	CC(=O)N1CCC(c2cc(N3CCOC[C@H]3C)nc(-c3ccnc4[nH]ccc34)n2)C1 (stereo partly drawn) [Example 16, 1-(3-{6-[(3R)-3-Methyl-morpholin-4-yl]-2-{1H-pyrrolo[2,3-b]pyridin-4-yl}-pyrimidin-4-yl}pyrrolidin-1-yl) ethan-1-one]
8.00	6.86	COC(=O)N1CCC(c2cc(N3CCOC[C@H]3C)nc(-c3ccnc4[nH]ccc34)n2)C1 (stereo partly drawn) [Example 17, Methyl 3-{6-[(3R)-3-methylmorpholin-4-yl]-2-{1H-pyrrolo[2,3-b]pyridin-4-yl}pyrimidin-4-yl}-pyrrolidine-1-carboxylate]
7.85	6.72	CNC(=O)N1CCC(c2cc(N3CCOC[C@H]3C)nc(-c3ccnc4[nH]ccc34)n2)C1 (stereo partly drawn) [Example 18, N-methyl-3-{6-[(3R)-3-methylmorpholin-4-yl]-2-{1H-pyrrolo[2,3-b]pyridin-4-yl}pyrimidin-4-yl}-pyrrolidine-1-carboxamide]
7.33	6.04	C[C@@H]1COCCN1c1cc(C2CCCN(C)C2=O)nc(-c2ccnc3[nH]ccc23)n1 (stereo partly drawn) [Example 19, 1-Methyl-3-{6-[(3R)-3-methylmorpholin-4-yl]-2-{1H-pyrrolo[2,3-b]pyridin-4-yl}pyrimidin-4-yl} piperidin-2-one]
7.82	7.29	CCC(=O)N1CCC(c2cc(N3CCOC[C@H]3C)nc(-c3ccnc4[nH]ccc34)n2)CC1 [Example 20, 1-(4-{6-[(3R)-3-Methylmorpholin-4-yl]-2-{1H-pyrrolo[2,3-b]pyridin-4-yl}pyrimidin-4-yl}piperidin-1-yl) propan-1-one]
7.66	7.09	C[C@@H]1COCCN1c1cc(C2CCN(C(=O)C3CC3)CC2)nc(-c2ccnc3[nH]ccc23)n1 [Example 21, (3R)-4-[6-(1-Cyclopropanecarbonylpiperidin-4-yl)-2-{1H-pyrrolo[2,3-b]pyridin-4-yl}pyrimidin-4-yl]-3-methylmorpholine]
7.82	6.96	CCOC(=O)N1CCC(c2cc(N3CCOC[C@H]3C)nc(-c3ccnc4[nH]ccc34)n2)CC1 [Example 22, Ethyl 4-{6-[(3R)-3-methylmorpholin-4-yl]-2-{1H-pyrrolo[2,3-b]pyridin-4-yl}pyrimidin-4-yl} piperidine-1-carboxylate]
8.30	7.68	C[C@@H]1COCCN1c1cc(C2CCN(S(=O)(=O)C3CC3)CC2)nc(-c2ccnc3[nH]ccc23)n1 [Example 23, (3R)-4-{6-[1-(Cyclopropane-sulfonyl)piperidin-4-yl]-2-{1H-pyrrolo[2,3-b]pyridin-4-yl}pyrimidin-4-yl}-3-methylmorpholine]
7.89	7.07	COCC(=O)N1CCC(c2cc(N3CCOC[C@H]3C)nc(-c3ccnc4[nH]ccc34)n2)CC1 [Example 24, 2-Methoxy-1-(4-{6-[(3R)-3-methylmorpholin-4-yl]-2-{1H-pyrrolo[2,3-b]pyridin-4-yl}pyrimidin-4-yl}piperidin-1-yl) ethan-1-one]
